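Protocol summary: plate cells (96-well), add compound at 5 concentrations, incubate 48 h, interpolate endpoints linearly. GI50: concentration for 50% inhibition of growth. TGI marks complete inhibition of growth.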
Columns and labels:
Experiment in all cases: NCI-60 cell line screen, 48 h
A549 NSCLC = test system: A549 NSCLC
SK-OV-3 ovarian = test system: SK-OV-3 ovarian
NCI-H460 lung = test system: NCI-H460 lung
SF-268 CNS = test system: SF-268 CNS
SN12C renal = test system: SN12C renal
ACHN renal = test system: ACHN renal
SNB-19 CNS = test system: SNB-19 CNS
KM12 colon = test system: KM12 colon
HOP-92 NSCLC = test system: HOP-92 NSCLC
M14 melanoma = test system: M14 melanoma
MDA-MB-435 = test system: MDA-MB-435
OVCAR-3 ovarian = test system: OVCAR-3 ovarian
HOP-62 NSCLC = test system: HOP-62 NSCLC
U251 CNS = test system: U251 CNS
MALME-3M melanoma = test system: MALME-3M melanoma
K-562 leukemia = test system: K-562 leukemia
HS 578T breast = test system: HS 578T breast
NCI-H522 lung = test system: NCI-H522 lung
SK-MEL-5 melanoma = test system: SK-MEL-5 melanoma
MOLT-4 leukemia = test system: MOLT-4 leukemia
OVCAR-4 ovarian = test system: OVCAR-4 ovarian
SF-539 CNS = test system: SF-539 CNS
786-0 renal = test system: 786-0 renal
OVCAR-8 ovarian = test system: OVCAR-8 ovarian
DU-145 prostate = test system: DU-145 prostate
T-47D breast = test system: T-47D breast
UO-31 renal = test system: UO-31 renal
HL-60(TB) leukemia = test system: HL-60(TB) leukemia
SNB-75 CNS = test system: SNB-75 CNS
LOX IMVI melanoma = test system: LOX IMVI melanoma
SR leukemia = test system: SR leukemia
HCC-2998 colon = test system: HCC-2998 colon
MDA-MB-468 breast = test system: MDA-MB-468 breast
SK-MEL-28 melanoma = test system: SK-MEL-28 melanoma
NCI-H23 lung = test system: NCI-H23 lung
NCI-H226 lung = test system: NCI-H226 lung
HCT-116 colon = test system: HCT-116 colon
IGROV1 ovarian = test system: IGROV1 ovarian
SF-295 CNS = test system: SF-295 CNS
MDA-MB-231 breast = test system: MDA-MB-231 breast
TK-10 renal = test system: TK-10 renal
MCF7 breast = test system: MCF7 breast
RPMI-8226 leukemia = test system: RPMI-8226 leukemia
HCT-15 colon = test system: HCT-15 colon
BT-549 breast = test system: BT-549 breast
UACC-62 melanoma = test system: UACC-62 melanoma
EKVX NSCLC = test system: EKVX NSCLC
SW-620 colon = test system: SW-620 colon
PC-3 prostate = test system: PC-3 prostate
OVCAR-5 ovarian = test system: OVCAR-5 ovarian
NCI/ADR-RES ovarian = test system: NCI/ADR-RES ovarian
COLO 205 colon = test system: COLO 205 colon
UACC-257 melanoma = test system: UACC-257 melanoma
CAKI-1 renal = test system: CAKI-1 renal
A498 renal = test system: A498 renal
SK-MEL-2 melanoma = test system: SK-MEL-2 melanoma
CCRF-CEM leukemia = test system: CCRF-CEM leukemia
HT29 colon = test system: HT29 colon

C[C@H]1[C@H](OC(=O)CCC(=O)N(CCCc2cn(-c3ccc(CN4CCOCC4)cc3)nn2)CCNc2ccnc3cc(Cl)ccc23)O[C@@H]2OC3(C)CC[C@H]4[C@H](C)CC[C@@H]1[C@@]24OO3
GI50 (A549 NSCLC): 3250 nM
TGI (A549 NSCLC): > 11800 nM
GI50 (SK-OV-3 ovarian): > 11800 nM
TGI (SK-OV-3 ovarian): > 11800 nM
GI50 (NCI-H460 lung): 2200 nM
TGI (NCI-H460 lung): 9500 nM
GI50 (SF-268 CNS): 2720 nM
TGI (SF-268 CNS): > 11800 nM
GI50 (SN12C renal): 2980 nM
TGI (SN12C renal): > 11800 nM
GI50 (ACHN renal): 2740 nM
TGI (ACHN renal): > 11800 nM
GI50 (SNB-19 CNS): 7350 nM
TGI (SNB-19 CNS): > 11800 nM
GI50 (KM12 colon): 596 nM
TGI (KM12 colon): > 11800 nM
GI50 (HOP-92 NSCLC): 506 nM
TGI (HOP-92 NSCLC): 4650 nM
GI50 (M14 melanoma): 1590 nM
TGI (M14 melanoma): 3450 nM
GI50 (MDA-MB-435): 800 nM
TGI (MDA-MB-435): 8910 nM
GI50 (OVCAR-3 ovarian): 681 nM
TGI (OVCAR-3 ovarian): > 11800 nM
GI50 (HOP-62 NSCLC): 10800 nM
TGI (HOP-62 NSCLC): > 11800 nM
GI50 (U251 CNS): 1420 nM
TGI (U251 CNS): 8270 nM
GI50 (MALME-3M melanoma): 1510 nM
TGI (MALME-3M melanoma): 3040 nM
GI50 (K-562 leukemia): 330 nM
TGI (K-562 leukemia): 2390 nM
GI50 (HS 578T breast): 1230 nM
TGI (HS 578T breast): 8090 nM
GI50 (NCI-H522 lung): 505 nM
TGI (NCI-H522 lung): > 11800 nM
GI50 (SK-MEL-5 melanoma): 1190 nM
TGI (SK-MEL-5 melanoma): 2580 nM
GI50 (MOLT-4 leukemia): 317 nM
TGI (MOLT-4 leukemia): 3270 nM
GI50 (OVCAR-4 ovarian): 869 nM
TGI (OVCAR-4 ovarian): > 11800 nM
GI50 (SF-539 CNS): 1590 nM
TGI (SF-539 CNS): 3230 nM
GI50 (786-0 renal): 1530 nM
TGI (786-0 renal): 3540 nM
GI50 (OVCAR-8 ovarian): 801 nM
TGI (OVCAR-8 ovarian): > 11800 nM
GI50 (DU-145 prostate): 6840 nM
TGI (DU-145 prostate): > 11800 nM
GI50 (T-47D breast): 460 nM
TGI (T-47D breast): > 11800 nM
GI50 (UO-31 renal): 1980 nM
TGI (UO-31 renal): > 11800 nM
GI50 (HL-60(TB) leukemia): 359 nM
TGI (HL-60(TB) leukemia): 1440 nM
GI50 (SNB-75 CNS): 11600 nM
TGI (SNB-75 CNS): > 11800 nM
GI50 (LOX IMVI melanoma): 692 nM
TGI (LOX IMVI melanoma): 3540 nM
GI50 (SR leukemia): 408 nM
TGI (SR leukemia): 2470 nM
GI50 (HCC-2998 colon): 3130 nM
TGI (HCC-2998 colon): > 11800 nM
GI50 (MDA-MB-468 breast): 943 nM
TGI (MDA-MB-468 breast): 4920 nM
GI50 (SK-MEL-28 melanoma): 1430 nM
TGI (SK-MEL-28 melanoma): 3620 nM
GI50 (NCI-H23 lung): 2280 nM
TGI (NCI-H23 lung): > 11800 nM
GI50 (NCI-H226 lung): 2540 nM
TGI (NCI-H226 lung): > 11800 nM
GI50 (HCT-116 colon): 372 nM
TGI (HCT-116 colon): 2680 nM
GI50 (IGROV1 ovarian): 3730 nM
TGI (IGROV1 ovarian): > 11800 nM
GI50 (SF-295 CNS): 2470 nM
TGI (SF-295 CNS): > 11800 nM
GI50 (MDA-MB-231 breast): 3050 nM
TGI (MDA-MB-231 breast): > 11800 nM
GI50 (TK-10 renal): 11700 nM
TGI (TK-10 renal): > 11800 nM
GI50 (MCF7 breast): 821 nM
TGI (MCF7 breast): > 11800 nM
GI50 (RPMI-8226 leukemia): 406 nM
TGI (RPMI-8226 leukemia): 5620 nM
GI50 (HCT-15 colon): 389 nM
TGI (HCT-15 colon): 4190 nM
GI50 (BT-549 breast): 899 nM
TGI (BT-549 breast): 8420 nM
GI50 (UACC-62 melanoma): 1150 nM
TGI (UACC-62 melanoma): > 11800 nM
GI50 (EKVX NSCLC): 1080 nM
TGI (EKVX NSCLC): > 11800 nM
GI50 (SW-620 colon): 533 nM
TGI (SW-620 colon): > 11800 nM
GI50 (PC-3 prostate): 234 nM
TGI (PC-3 prostate): > 11800 nM
GI50 (OVCAR-5 ovarian): 1310 nM
TGI (OVCAR-5 ovarian): > 11800 nM
GI50 (NCI/ADR-RES ovarian): 2640 nM
TGI (NCI/ADR-RES ovarian): > 11800 nM
GI50 (COLO 205 colon): 623 nM
TGI (COLO 205 colon): > 11800 nM
GI50 (UACC-257 melanoma): 1190 nM
TGI (UACC-257 melanoma): 2820 nM
GI50 (CAKI-1 renal): 4560 nM
TGI (CAKI-1 renal): > 11800 nM
GI50 (A498 renal): > 11800 nM
TGI (A498 renal): > 11800 nM
GI50 (SK-MEL-2 melanoma): 3160 nM
TGI (SK-MEL-2 melanoma): > 11800 nM
GI50 (CCRF-CEM leukemia): 1020 nM
TGI (CCRF-CEM leukemia): > 11800 nM
GI50 (HT29 colon): 745 nM
TGI (HT29 colon): 3880 nM

— PubChem BioAssay (NCI)
